“And” between values parts separate entries of the source, which are not always exact repeats. Equal entries are not always repeated.
Columns and labels:
[1] = tested on: B-lymphocytes and T-cell populations; settings: cited from earlier work
CMV-positive CD8 T cells = experiment: CMV specific CD8 T cell response; format: cell-based, human; settings: overnight (12-14 hours) incubation
From the text: The cytomegalovirus (CMV) specific assay was used to evaluate the effects of venetoclax on antigen-experienced CD8 T cells. This assay used CMV) peptide pp65 ([…], SEQ ID NO: 53) to stimulate CMV-positive CD8 T cells, and MART ([…]) peptide as a negative control. Human CMV-positive CD8 T cells and CMV peptide pp65 were purchased from Astarte Biologics and MART peptide as purchased from Genscript. 2×10^5 CMV-positive CD8 T cells were stimulated with 2×10^5 CMV pp65 peptide or MART peptide loaded T2 cells (2.5 μg/ml of peptide) with brefeldin-A in RPMI media supplemented with 10% fetal bovine serum (FBS). For measuring the IFNγ secretion in the supernatant, CMV+ CD8 T cells were activated with CMV pp65 peptide or MART peptide loaded T2 cells and incubated with venetoclax without brefeldin-A in RPMI media supplemented with 10% fetal bovine serum (FBS). […] Cells were analyzed using an LSRFortessa™ X-20 instrument (BD Biosciences). The secreted IFNγ in supernatant was measured by ELISA.
CMV+ CD8 T cells were activated by CMV pp65 peptide ([…]) loaded on T2 cells and the effect of venetoclax on the function of these cells was assessed by measuring intra-cellular and secreted IFNγ (flow cytometry and ELISA as described above). […]

[2] = tested on: T-cell subsets in peripheral blood; experiment: T-cell subsets in peripheral blood of healthy volunteers; format: in vivo, human; set-up: key: ↑: increase; ↓: decrease; ≈: no change; settings: one dose of 100 mg (or dose-equivalent); one day pre- vs seven days post-treatment; per subject
Description: In a clinical study sponsored by AbbVie Inc. healthy volunteers were administered with one dose of 100 mg of Compound (I) (venetoclax) or a dose-equivalent of Compound (IV) in a solid formulation to deliver 100 mg of Compound (I). T-cell subsets in peripheral blood were measured one day pre- and seven days post-treatment by flow cytometry. In most of the tested subjects the fraction of CD4+ and CD8+ T effector memory and terminally differentiated effector memory cells increased, the proportion of CD8+ naïve T-cells has remained unchanged or decreased, and the proportion of CD4+ and CD8+ central memory T cells has decreased following treatment with either agent (Table 7 and FIG. 13).

EMT6 tumors = experiment: EMT6 mouse mammary carcinoma syngeneic model; format: in vivo; settings: EMT6; venetoclax 50 mg/kg daily for 14 days
Description: All experiments were conducted in compliance with the National Institutes of Health Guide for Care and Use of Laboratory Animals guidelines in a facility accredited by the Association for the Assessment and Accreditation of Laboratory Animal Care (AAALAC). BALB/c, C57BL/6, CB6F1 (C57BL/6 bred with BALB/c) and SCID mice were obtained from Charles River (Wilmington, Mass.). SCID mice have severe combined immune deficiency (SCID) and are characterized by an absence of functional T- and B-cells.
EMT6, mouse mammary carcinoma and CT26, mouse colon carcinoma, cell lines were obtained from ATCC (Manassas, Va.). MC38, mouse colon carcinoma cell line was obtained from National Cancer Institute (NCI).
Compound (I),venetoclax, was formulated in 10% ethanol+30% PEG 400+60% Phosal® 50PG. Venetoclax was administered orally once a day for 14 days at 50 mg/kg/day.
1×10^5 CT26, EMT6 or MC38 cells were subcutaneously injected with Matrigel into the flanks of BALB/c, CB6F1 or C57BL/6 mice, respectively. Seven days later, mice were randomized to treatment groups of vehicle, venetoclax, anti-PD-1/PD-L1 or the combination of venetoclax and anti-PD-1/PD-L1. Tumor volume was determined via measurements of the length (L) and width (W) of the tumor with electronic calipers and the volume was calculated according to the following equation: V=L×W2/2 using Study Director Version 2.1.11 (Studylog Systems Inc., South San Francisco). Complete response (CR) was defined as reduction in tumor volume to ≤25 mm^3 over at least 3 successive measurements.

CMV-positive human PBMCs = experiment: CMV recall assay in the presence of anti-PD-1 antibody; format: cell-based; settings: 1 μg/mL CMV antigen, day 4
Description: The cytomegalovirus (CMV) recall assay was used assess the functional effects of venetoclax on antigen-experienced immune cells and to evaluate the effect of venetoclax on anti-PD1 immune response. This assay used cytomegalovirus (CMV) antigen to stimulate pre-existing memory T-cells in CMV-positive human PBMCs. Human CMV-positive PBMCs (Cat.No:1001; Lot. No. 3634JY17) and CMV antigen (Cat. No. 1004) were purchased from Astarte Biologics. 2×10^5 CMV-positive PBMCs were stimulated with 1 μg/mL of CMV antigen with or without inhibitors +/−anti-PD-1 (nivolumab) in Roswell Park Memorial Institute (RPMI) media supplemented with 10% fetal bovine serum (FBS) and 1% antibiotics. On day 4, secreted IFNγ was measured by ELISA and the live cells were analyzed using a live dead stain, Zombie Green™ (BioLegend®) using LSRFortessa™ X-20 instrument (BD Biosciences). Venetoclax reduced the percentage of live cells compared to DMSO as single agent or in combination with nivolumab (FIG. 10D).

Compound: CC1(C)CCC(CN2CCN(c3ccc(C(=O)NS(=O)(=O)c4ccc(NCC5CCOCC5)c([N+](=O)[O-])c4)c(Oc4cnc5[nH]ccc5c4)c3)CC2)=C(c2ccc(Cl)cc2)C1 [Compound (I), venetoclax]
- reductions in T-cell populations ([1]; Lu et al. 2017, Khaw et al. 2014): up to 30%
- reductions in B-lymphocytes ([1]; clinically and in experimental studies): significant reductions
- number of CD8 T cells (CMV-positive CD8 T cells): reduced
- CD4+ T-Cells TCM [2]: ↓
- CD4+ T-Cells TEM [2]: ↑
- CD4+ T-Cells TEMRA [2]: ↑ and ≈ (2×)
- CD4+ T-Cells TN [2]: ≈ and ↑ and ↓
- CD8+ T-Cells TCM [2]: ↓
- CD8+ T-Cells TEM [2]: ↑
- CD8+ T-Cells TEMRA [2]: ↑ (2×) and ≈
- CD8+ T-Cells TN [2]: ↓ and ≈ (2×)
- anti-tumor activity as single agent (EMT6 tumors): modest activity
- IFNγ secretion from antigen specific CMV+ T cells (ELISA) (CMV-positive human PBMCs): remained comparable to DMSO control
- percentage of live cells compared to DMSO (CMV-positive human PBMCs): reduced

Source: US20190336496A1, “SELECTIVE BCL-2 INHIBITORS IN COMBINATION WITH AN ANTI-PD-1 OR AN ANTI-PD-L1 ANTIBODY FOR THE TREATMENT OF CANCERS” (AbbVie Inc., priority 2018, published 2019)
